{
  "source": "patent US20220227728A1",
  "about": "“Microtubule-associated protein Tau imaging compounds for Alzheimer's disease and precursors thereof” (priority 2021, published 2022)",
  "test_system": "microtubule-associated protein Tau",
  "assay": "nano PET/CT imaging in P301L gene transgenic mice and control mice",
  "assay_type": "in vivo",
  "settings": "0.46 mCi by tail vein, 30 minutes of distribution",
  "from_the_text": "FIG. 3 is an image of the microtubule-associated protein Tau compound 29 of the present invention in P301L gene transgenic mice and control mice using positron emission tomography (nano PET/CT) analysis, in which P301L gene transgenic mice (source: United States JACKSON Research Center) refers to the mutation of proline to leucine at codon 301 of the encoded microtubule-associated protein Tau. These types of mutations can accelerate the formation of neurofibrillary tangles. P301L gene transgenic mice and control mice were injected through the tail vein with 0.46 millicuries (mCi) of compound 29 of the present invention, and after 30 minutes of distribution, radiography was performed on the mice using a positron emission tomography scanner (BIOSCAN).\n0.46 mCi of compound 29 was injected into P301L gene transgenic mice and control mice, and after 30 minutes of distribution nano-PET/CT was used for contrast imaging.",
  "note": "“Also recorded” adds a separate entry of the source.",
  "data": [
    {"smiles": "CC([18F])COc1ccc2cc(-n3cc4ccccc4c3)ncc2c1", "note": "(stereo not shown) [compound 29, [18F] 7-(2-fluoropropoxy)-3-(2H-isoindol-2-yl) isoquinoline]", "values": [
      {"measurement": "drug accumulation (absorption) in the brain of P301L gene transgenic mice versus control mice", "result": "significantly higher than that of the control mice; also recorded: significantly greater than that of control mice"}
    ]}
  ]
}
